{
  "source": "patent US10130651B2",
  "about": "“RNAi Therapy for Hepatitis B Virus Infection” (Arrowhead Pharmaceuticals, Inc., priority 2015, dated 2018)",
  "type_in_all_cases": "in vivo, NOD-SCID mice (pHBV model)",
  "key": {"[1]": {"system": "Hepatitis B surface antigen (HBsAg), Hepatitis B Virus", "assay": "Serum HBsAg (ELISA) in pHBV model mice after IV MLP delivery peptide+HBV RNAi triggers (Example 7)", "details": "8 mg/kg MLP delivery peptide without HBV RNAi triggers", "excerpt": "(§1) At day −42, 6 to 8 week old female NOD.CB17-Prkdscid/NcrCrl (NOD-SCID) mice were transiently transfected in vivo with MC-HBV1.3 by hydrodynamic tail vein injection (Yang P L et al. “Hydrodynamic injection of viral DNA: a mouse model of acute hepatitis B virus infection.” PNAS USA 2002 Vol. 99: p. 13825-13830). MC-HBV1.3 is a plasmid-derived minicircle that contains the same terminally redundant human hepatitis B virus sequence HBV1.3 as in the HBV1.3.32 transgenic mice (GenBank accession #V01460) (Guidotti L G et al. “High-level hepatitis B virus replication in transgenic mice. J Virol 1995 Vol. 69, p 6158-6169.). […] At day −21, three weeks post transfection, Hepatitis B surface antigen (HBsAg) HBsAg expression levels in serum were measured by ELISA and the mice were grouped according to average HBsAg expression levels. […]\n(§2) At various times, before and after administration of MLP delivery peptide+HBV RNAi triggers, isotonic glucose, or MLP delivery peptide alone, serum HBsAg, serum HBV DNA, or liver HBV RNA were measured. […]\nSerum was collected and diluted 10 to 2000-fold in PBS containing 5% nonfat dry milk. […] HBsAg levels were determined with a GS HBsAg EIA 3.0 kit (Bio-Rad Laboratories, Inc., Redmond, Wash.) as described by the manufacturer. […]"}, "[2]": {"system": "HBV DNA, Hepatitis B Virus", "assay": "Serum HBV DNA (qPCR) in pHBV model mice (Example 7)", "details": "8 mg/kg MLP delivery peptide without HBV RNAi triggers", "excerpt": "as §1, §2\nThe number of copies of HBV genomes in DNA isolated from the pHBV mouse model serum was determined by qPCR. […]\nqPCR assays were performed on a 7500 Fast or StepOne Plus Real-Time PCR system (Life Technologies). […] Quantitations of HBV DNA and recovery control plasmid were determined by qPCR reactions performed in triplicate. […]"}, "[3]": {"assay": "Clinical chemistry (liver and renal function) in pHBV model mice", "details": "day 2 (24 hours post-injection) vs day −1", "method": "Clinical chemistry markers in mouse serum were measured using a COBAS Integra 400 (Roche Diagnostics, Indianapolis, Ind.) chemical analyzer according to the manufacturer's instructions.\nLiver and renal functions were evaluated on day −1 (pre-injection) and day 2 (24 hours post-injection)."}},
  "note": "Ends that are not written are not given here.",
  "data": [
    {"substance": "MLP delivery peptide: MLP SEQ ID NO: 650 (GIL MLP, L-form) reversibly masked with CDM-NAG (LIGAILKVLATGLPTLISWIKNKRKQ; also: reversibly masked with CDM-NAG)", "values": [
      {"measurement": "HBsAg levels in serum", "setting": "[1]", "value": "comparable to levels in mice that received a single injection of isotonic glucose"},
      {"measurement": "HBV DNA levels in serum", "setting": "[2]", "value": "comparable to levels in mice that received a single injection of isotonic glucose"},
      {"measurement": "evidence of toxicity", "setting": "[3]", "value": "nor was there any evidence of toxicity"}
    ]}
  ]
}
